Experimental data published in PubChem BioAssay (NCI).
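Assay format: 96-well plates, 48-hour exposure. TGI marks complete inhibition of growth.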

Assays:
Experiment in all cases: NCI anticancer screen, dose series, 48 h
[1] = tested on: SK-OV-3 ovarian
[2] = tested on: OVCAR-5 ovarian
[3] = tested on: SN12C renal
[4] = tested on: DU-145 prostate
[5] = tested on: MDA-MB-435
[6] = tested on: HOP-62 NSCLC
[7] = tested on: MALME-3M melanoma
[8] = tested on: OVCAR-3 ovarian
[9] = tested on: TK-10 renal
[10] = tested on: MCF7 breast
[11] = tested on: HS 578T breast
[12] = tested on: RPMI-8226 leukemia
[13] = tested on: HCT-116 colon
[14] = tested on: HT29 colon
[15] = tested on: M14 melanoma
[16] = tested on: SK-MEL-5 melanoma
[17] = tested on: IGROV1 ovarian
[18] = tested on: UACC-257 melanoma
[19] = tested on: BT-549 breast
[20] = tested on: SW-620 colon
[21] = tested on: OVCAR-8 ovarian
[22] = tested on: ACHN renal
[23] = tested on: SF-295 CNS
[24] = tested on: MDA-MB-231 breast
[25] = tested on: A498 renal
[26] = tested on: UACC-62 melanoma
[27] = tested on: SK-MEL-28 melanoma
[28] = tested on: SF-268 CNS
[29] = tested on: KM12 colon
[30] = tested on: SK-MEL-2 melanoma
[31] = tested on: CCRF-CEM leukemia
[32] = tested on: RXF 393 renal
[33] = tested on: CAKI-1 renal
[34] = tested on: NCI-H226 lung
[35] = tested on: SR leukemia
[36] = tested on: LOX IMVI melanoma
[37] = tested on: SF-539 CNS
[38] = tested on: COLO 205 colon
[39] = tested on: NCI/ADR-RES ovarian
[40] = tested on: 786-0 renal
[41] = tested on: OVCAR-4 ovarian
[42] = tested on: NCI-H460 lung
[43] = tested on: HOP-92 NSCLC
[44] = tested on: NCI-H23 lung
[45] = tested on: UO-31 renal
[46] = tested on: HCT-15 colon
[47] = tested on: MOLT-4 leukemia
[48] = tested on: MDA-N
[49] = tested on: K-562 leukemia
[50] = tested on: U251 CNS
[51] = tested on: PC-3 prostate
[52] = tested on: SNB-75 CNS
[53] = tested on: T-47D breast
[54] = tested on: NCI-H522 lung
[55] = tested on: A549 NSCLC
[56] = tested on: SNB-19 CNS
[57] = tested on: EKVX NSCLC
[58] = tested on: HCC-2998 colon

CN(C)CCCNc1ccnc2cc([N+](=O)[O-])ccc12
TGI [1]: 62.3 µM | TGI [2]: 42.4 µM | TGI [3]: 39.9 µM | TGI [4]: 72.2 µM | TGI [5]: 31.3 µM | TGI [6]: 42.3 µM | TGI [7]: 11.4 µM | TGI [8]: 29.9 µM | TGI [9]: 65.4 µM | TGI [10]: 16.7 µM | TGI [11]: 40.4 µM | TGI [12]: > 100 µM | TGI [13]: 23.7 µM | TGI [14]: 6.99 µM | TGI [15]: 24.4 µM | TGI [16]: 24.1 µM | TGI [17]: 12.8 µM | TGI [18]: 27.7 µM | TGI [19]: 33.4 µM | TGI [20]: 30 µM | TGI [21]: 46.1 µM | TGI [22]: 61.5 µM | TGI [23]: 54.9 µM | TGI [24]: 28.6 µM | TGI [25]: 31.7 µM | TGI [26]: 33.6 µM | TGI [27]: 97.5 µM | TGI [28]: 53.9 µM | TGI [29]: 26.4 µM | TGI [30]: 29.7 µM | TGI [31]: > 100 µM | TGI [32]: 26.3 µM | TGI [33]: 67.6 µM | TGI [34]: 35 µM | TGI [35]: > 100 µM | TGI [36]: 24.6 µM | TGI [37]: 31.9 µM | TGI [38]: 7.9 µM | TGI [39]: 50 µM | TGI [40]: 28.8 µM | TGI [41]: 12.8 µM | TGI [42]: 17.7 µM | TGI [43]: 8.13 µM | TGI [44]: 25.4 µM | TGI [45]: 44.8 µM | TGI [46]: 26.7 µM | TGI [47]: > 100 µM | TGI [48]: 25.7 µM | TGI [49]: > 100 µM | TGI [50]: 57.7 µM | TGI [51]: 42.4 µM | TGI [52]: 48.9 µM | TGI [53]: 35.8 µM | TGI [54]: 16.3 µM | TGI [55]: 60.6 µM

O=C(Nc1sccc1S(=O)(=O)c1ccc(Cl)cc1)C(F)(F)F
TGI [1]: > 100 µM | TGI [2]: > 100 µM | TGI [56]: > 100 µM | TGI [3]: 54.6 µM | TGI [4]: > 100 µM | TGI [57]: > 100 µM | TGI [5]: > 100 µM | TGI [6]: > 100 µM | TGI [7]: > 100 µM | TGI [8]: > 100 µM | TGI [9]: > 100 µM | TGI [10]: > 100 µM | TGI [11]: 72.1 µM | TGI [12]: 31.4 µM | TGI [13]: 37 µM | TGI [14]: > 100 µM | TGI [15]: > 100 µM | TGI [16]: 38.8 µM | TGI [17]: > 100 µM | TGI [18]: > 100 µM | TGI [19]: > 100 µM | TGI [20]: > 100 µM | TGI [21]: > 100 µM | TGI [22]: > 100 µM | TGI [23]: > 100 µM | TGI [24]: 37.3 µM | TGI [25]: > 100 µM | TGI [26]: > 100 µM | TGI [27]: > 100 µM | TGI [28]: 83.6 µM | TGI [58]: > 100 µM | TGI [29]: 61.4 µM | TGI [30]: 48.4 µM | TGI [33]: 62.5 µM | TGI [34]: > 100 µM | TGI [35]: 58.3 µM | TGI [36]: > 100 µM | TGI [37]: 93.7 µM | TGI [38]: 31.8 µM | TGI [39]: > 100 µM | TGI [40]: > 100 µM | TGI [41]: > 100 µM | TGI [42]: > 100 µM | TGI [43]: > 100 µM | TGI [44]: > 100 µM | TGI [45]: > 100 µM | TGI [46]: > 100 µM | TGI [47]: 41.1 µM | TGI [48]: 77.3 µM | TGI [49]: 35.5 µM | TGI [50]: > 100 µM | TGI [51]: > 100 µM | TGI [52]: 71.6 µM | TGI [53]: > 100 µM | TGI [54]: > 100 µM | TGI [55]: > 100 µM
